The values below come from patent publication US10517889B2, “Modulators of SMAD7 expression” (Ionis Pharmaceuticals, Inc., priority 2017, dated 2019).

What all share (format): cell-based
In series [1] the test system is human SMAD7 mRNA. In words: Dose-dependent inhibition of human SMAD7 mRNA expression in Hep3B cells (Example 3, Study 1 and 2). The following applies: electroporation; for % inhibition of SMAD7 mRNA expression: approximately 16 hours; for IC50: Study 1 (312.5-20000 nM). In a few lines: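 Hep3B cells, 20,000 per well, electroporated with antisense oligonucleotide at 0.31, 1.25, 5.00 or 20.00 μM (first series) or 0.74, 2.22, 6.67 or 20.00 μM (second series). After ~16 h, SMAD7 mRNA measured by RT-qPCR (RTS5062), normalised to RIBOGREEN total RNA. Percent inhibition vs untreated cells; IC50 derived.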

The subject of series [2] is human SMAD7 mRNA. Nature of the series: Antisense inhibition of human SMAD7 mRNA expression in Hep3B cells by 5-10-5 MOE gapmers, single concentration, electroporation, RT-PCR (Example 1, Study 1 and 2). To be noted: 5-10-5 MOE gapmers targeting SEQ ID NO: 1 and 2; for % inhibition of SMAD7 mRNA expression: electroporation, 15,000 nM antisense oligonucleotide (Study 2). The method in brief:
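Readout is percent SMAD7 mRNA inhibition versus untreated cells, measured by qRT-PCR (RTS5062) and corrected for total RNA by RIBOGREEN. Oligonucleotide, 5,000 nM or 15,000 nM, was delivered by electroporation into Hep3B cells at 20,000 per well. RNA was collected about 24 h later.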

Series [3] relates to human SMAD7 mRNA. Nature of the series: Antisense inhibition of human SMAD7 mRNA expression in Hep3B cells by 3-10-3 cEt gapmers, 10,000 nM, electroporation (Example 2). To be noted: approximately 24 hours, primer probe set RTS5062, relative to untreated control cells. In a few lines: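 SMAD7 mRNA was measured by real-time PCR (RTS5062) with RiboGreen total-RNA normalization, about 24 h after 10,000 nM gapmer was delivered by electroporation into Hep3B cells at 20,000 per well. Gapmers were 16-mer 3-10-3 cEt, fully phosphorothioate; values are % inhibition versus untreated controls.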

The test system of series [4] is human SMAD7 mRNA. Nature of the series: Dose-dependent inhibition of human SMAD7 mRNA expression in Hep3B cells, comparison with ION 28453 (Example 4). To be noted: electroporation, approximately 16 hours. The method, then: Cells were plated at a density of 20,000 cells per well and transfected using electroporation with 0.25 μM, 0.74 μM, 2.22 μM, 6.67 μM, or 20.00 μM concentrations of antisense oligonucleotide, as specified in the Tables below. After a treatment period of approximately 16 hours, RNA was isolated from the cells and SMAD7 mRNA levels were measured by quantitative real-time PCR. Primer probe set RTS5062 was used to measure human SMAD7 mRNA levels. SMAD7 mRNA levels were adjusted according to total RNA content, as measured by RIBOGREEN®. Results are presented as percent inhibition of SMAD7 mRNa expression, relative to untreated control cells.
The half maximal inhibitory concentration (IC50) of each oligonucleotide is also presented. […] Several newly designed antisense oligonucleotides had greater potency than the previously disclosed lead compound, ION 28453.

Where [5] appears, read: 312.5 nM, Study 1, relative to untreated control cells.

Strand notation (5' to 3'): a small letter for the sugar, then the base; units joined by * are phosphorothioate-linked, units joined directly phosphodiester-linked; [ ] holds rarer units or linkages, { } end groups; capitals alone tell only the bases. e = 2'-O-(2-methoxyethyl) (MOE); k = constrained ethyl (cEt); [5mC] = 5-methylcytosine; d = 2'-deoxy (DNA) A value given as a limit tells only on which side of the number the result lay.

On to “771937 (antisense eT*e[5mC]*e[5mC]*eA*eG*dT*dG*d[5mC]*dT*dT*dG*dT*dG*d[5mC]*dA*eT*eG*eT*eG*e[5mC]) [compound 771937]”, for which the “% inhibition of SMAD7 mRNA expression” value in the series with human SMAD7 mRNA [1] (setting [5]) turned out to be 0%; in the series with human SMAD7 mRNA [1] (1250.0 nM, Study 1), 0%; in the series on human SMAD7 mRNA [1] (5000.0 nM, Study 1) it was 4%; in the series on human SMAD7 mRNA [1] (20000.0 nM, Study 1) it was 41%; in the series on human SMAD7 mRNA [2], 52%. In addition, the 50% inhibitory concentration (IC50) (commonly the concentration needed to halve the response being measured) in the series on human SMAD7 mRNA [1] is more than 20 µM.
For “771944 (antisense eG*eG*eT*eA*eA*dT*dT*dT*dT*d[5mC]*d[5mC]*dT*d[5mC]*dA*dA*e[5mC]*eA*eG*eG*e[5mC]) [compound 771944]”, the “% inhibition of SMAD7 mRNA expression” value in the series on human SMAD7 mRNA [1] (setting [5]) is recorded as 0%; in the series with human SMAD7 mRNA [1] (1250.0 nM, Study 1), 34%; with human SMAD7 mRNA [1] (5000.0 nM, Study 1), 35%; with human SMAD7 mRNA [1] (20000.0 nM, Study 1), 48%; in the series with human SMAD7 mRNA [2], 8%. In the series with human SMAD7 mRNA [1], the IC50 was more than 20 µM. The “% Inhibition of SMAD7 mRNA” value in the series with human SMAD7 mRNA [2] (electroporation with 15,000 nM antisense oligonucleotide (Study 2)) was found to be 50%.
In the case of “799184 (antisense kA*kA*k[5mC]*d[5mC]*dT*dT*dT*dG*dT*dA*dG*dT*dT*kA*kG*kA) [compound 799184]”, the “% inhibition of SMAD7 mRNA expression” value amounted to 58% in the series with human SMAD7 mRNA [3] (Hep3B cells, electroporation with 10,000 nM antisense oligonucleotide); 0% in the series with human SMAD7 mRNA [4] (0.25 μM); 10% in the series on human SMAD7 mRNA [4] (0.74 μM); 18% with human SMAD7 mRNA [4] (2.22 μM); 51% with human SMAD7 mRNA [4] (6.67 μM); 78% with human SMAD7 mRNA [4] (20.00 μM). Also, the % Inhibition (usually how much of the control response was suppressed) in the series on human SMAD7 mRNA [3] (SMAD7 mRNA, Hep3B cells, 10,000 nM antisense oligonucleotide, electroporation) stood at 48%. This substance had a half-maximal inhibitory concentration (IC50) with human SMAD7 mRNA [4] (SMAD7 mRNA) of 6 µM.
